Source: publication PMC9354705, “Characterization of TR‐107, a novel chemical activator of the human mitochondrial protease ClpP” (Pharmacology Research & Perspectives, 2022)
Where two headings read alike, the source gives them in different places.

Legend:
[1] = Pharmacokinetic analysis in ICR mice; assay type: in vivo, mouse; details: for bioavailability: 10 mg/kg oral vs 2.0 mg/kg i.v., read-out: F% (oral bioavailability)
Experimental: Samples were placed in tubes containing heparin sodium and stored on ice until centrifuged. Blood samples were centrifuged at 6800g for 6 min at 2–8°C within 1 h following sample collection and stored at −80°C. Proteins from plasma sample aliquots (20 μl) were precipitated by the addition of MeOH (400 μl) containing an internal standard (tolbutamide,100 ng/ml), vortexed for 1 min, and centrifuged at 18 000g for 7 min. The supernatant (200 μl) was transferred to 96 well plates for analysis.
Analysis of samples was conducted as follows. […] The PK parameters including Area Under the Curve (AUC[0–∞]) elimination half‐life (t 1/2), maximal plasma concentration (C max), and oral bioavailability (F%) were analyzed by noncompartmental methods.

SUM159 cells = test: Cell viability (total cell count, Hoechst stain) in SUM159 cells; assay type: cell-based; details: Homo sapiens, WT cells, 72 h, mean N = 3
Experimental: Human TNBC cell line SUM159 was a generous gift from Dr. Gary Johnson (the University of North Carolina at Chapel Hill). MDA‐MB‐231 (WT and CLPP‐KO) cells were provided by Dr. Stanley Lipkowitz (National Cancer Institute). MDA‐MB‐231 cells were cultured in RPMI‐1640 media (Gibco, 11875‐093) supplemented with 10% fetal bovine serum (FBS; VWR‐Seradigm, 97068‐085), and 1% antibiotic–antimycotic (anti/anti; ThermoFisher Scientific, 15240062). SUM159 cells were cultured in Dulbecco's modified Eagle's medium: Nutrient Mixture F‐12 (DMEM/F12; Gibco, 11330‐032) supplemented with 5% FBS, 5 μg/ml insulin (Gibco, 12585014), 1 μg/ml hydrocortisone, and 1% anti/anti. Cells were maintained at 5% CO2 and 37°C and periodically tested for mycoplasma.
Total cell counting assays were performed by seeding MDA‐MB‐231 cells (WT and ClpP‐KO; 4000 cells/well) or SUM159 (WT and ClpP‐KO; 1000 cells/well) in a 96‐well plate (Perkin Elmer, 6005050) and allowed to adhere overnight. The growth medium was then aspirated and replaced with 100 μl of growth medium supplemented with the drug at concentrations indicated in the figure or figure legends. Cells treated with vehicle control (0.1% DMSO, Sigma‐Aldrich D2650) were used as a negative control in all experiments, and cells were incubated with drug‐containing media for 24, 48, or 72 h as indicated in figure legends. Media was then aspirated and replaced with 100 μl Dulbecco's phosphate‐buffered saline (DPBS Gibco, 14190‐144) containing 1 μg/ml Hoechst stain (ThermoFischer Scientific, H3570) and allowed to incubate at 37°C for 30 min. The total cell number was then quantified using the Celigo Imaging Cytometer (Nexcelom).

[2] = target: purified recombinant human ClpP (Homo sapiens, UniProt Q16740); test: In vitro ClpP activity assay (casein‐FITC degradation); assay type: biochemical; details: relative to DMSO, read-out: EC50 (nM) ClpP activation
Experimental: Measurement of in vitro activity of purified recombinant human ClpP was performed with a slight modification to the method previously described.[46] Briefly, ClpP activity was measured through the degradation of casein‐FITC (Sigma‐Aldrich, C0528) in the presence of indicated compounds. […] Enzyme and compounds were mixed and incubated in assay buffer for 30 min before adding casein‐FITC substrate. […] Linear slope of fluorescence signal was used to measure ClpP activity and normalized to DMSO control, expressed as RFU/h.

MDA‐MB‐231 cells = test: Cell viability (total cell count, Hoechst stain) in MDA‐MB‐231 cells; assay type: cell-based, human; details: Homo sapiens, MDA-MB-231, 72 h
[3] = cited from earlier work
[4] = tested on: MDA‐MB‐231 or SUM159 cells; test: Caspase‐3/7 activity assay and PARP cleavage; assay type: cell-based, human; details: for caspase‐3/7 activity: 24 h, 10 μM ONC201, 150 nM TR‐57, 100 nM TR‐107, 100 nM staurosporine; for PARP cleavage: data not shown
Experimental: […]. The samples were collected in lysis buffer (50 mM HEPES [pH: 7.4], 5 mM CHAPS, and 5 mM DTT), and caspase activity was measured by monitoring fluorescence (ex/em: 360/460 nm) using a SpectraMax i3x (Molecular Devices).

[5] = tested on: MDA‐MB‐231 and SUM159 cells; test: Immunoblotting for mitochondrial proteins; assay type: cell-based, human; details: 100 nM TR‐107, 150 nM TR‐57, or 10 μM ONC201
Experimental: Cell lysates were clarified and immunoblotted as described earlier.[45] Membranes were incubated with primary antibodies (Appendix S1) diluted 1:1000 in 1% fish gelatin (Sigma‐Aldrich, G7041)/TBST overnight at 4°C, removed, washed 3 × 5 min in TBST, and placed in their respective 2° antibodies (1:10 000 dilution in 5% milk/TBST) for 1 h. […] Acquired images were processed/quantified using Image Lab software (BioRad) or Image Studio Lite (LI‐COR).

C3(1)‐Tag cells = test: Cell viability assay of C3Tag cells; assay type: cell-based, murine; details: Mus musculus; 72 h, Hoechst stain, N = 2
[6] = male, mouse, plasma, iv, ICR mice, 2.0 mg/kg i.v.
[7] = male, mouse, plasma, iv, ICR mice, 2.0 mg/kg i.v., read-out: C max
[8] = male, mouse, plasma, iv, ICR mice, 2.0 mg/kg i.v., read-out: C max (mg/ml)
[9] = male, mouse, plasma, iv, ICR mice, 2.0 mg/kg i.v., read-out: T 1/2 (converted)
[10] = male, mouse, plasma, ICR mice, 10 mg/kg oral
[11] = male, mouse, plasma, ICR mice, 10 mg/kg oral, read-out: C max
[12] = male, mouse, plasma, ICR mice, 10 mg/kg oral, read-out: C max (mg/ml)
[13] = male, mouse, plasma, ICR mice, 10 mg/kg oral, read-out: T 1/2 (converted)
[14] = WT cells, Hoechst stain, mean N = 3, read-out: IC50 (nM) MDA-MB-231

Chain of purified recombinant human ClpP (Q16740 57-277): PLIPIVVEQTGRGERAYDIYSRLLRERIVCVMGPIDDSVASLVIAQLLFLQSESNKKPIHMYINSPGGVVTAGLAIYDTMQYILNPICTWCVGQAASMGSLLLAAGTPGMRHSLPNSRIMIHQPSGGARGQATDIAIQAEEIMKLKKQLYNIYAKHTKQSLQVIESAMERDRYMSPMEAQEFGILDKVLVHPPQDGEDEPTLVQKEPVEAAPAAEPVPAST

N#Cc1cccc(CN2CCC3=C(C2)C(=O)N(Cc2ccc(Cl)cc2)C2=NCCN23)c1 [TR‐65]
AUC(0-inf) [1, 6]: 351 ng·h/mL | Cmax [1, 7]: 1500 nM | Cmax [1, 8]: 636 ng/mL | half-life [1, 9]: 0.73 h | AUC(0-inf) [1, 10]: 584 ng·h/mL | bioavailability ([1]; male, mouse, plasma, ICR mice): 33% | Cmax [1, 11]: 670 nM | Cmax [1, 12]: 294 ng/mL | half-life [1, 13]: 0.95 h

N#Cc1cccc(CC2CCC3=C(C2)C(=O)N(Cc2ccc(C(F)(F)F)cc2)C2=NCCN23)c1 (stereo not shown) [TR‐109]
IC50 (SUM159 cells): 4600 nM | EC50 [2]: 670 nM | IC50 (MDA‐MB‐231 cells; [14]): 2200 nM

N#Cc1cccc(CN2CCC3=C(C2)C(=O)N(Cc2ccc(C(F)(F)F)cc2)C2=NCCCN23)c1 [TR‐98]
IC50 (SUM159 cells): 24 nM | EC50 [2]: 310 nM | IC50 (MDA‐MB‐231 cells; [14]): 21 nM

O=C1C2=C(CCN(Cc3ccccc3)C2)N2CCN=C2N1Cc1ccc(C(F)(F)F)cc1 [ONC212/TR‐31, reference compound]
reported t 1/2 ([3]; oral dose of 125 mg/kg): 4.3 h | IC50 (SUM159 cells): 27 nM | EC50 [2]: 310 nM | IC50 (MDA‐MB‐231 cells; [14]): 80 nM | AUC(0-inf) [1, 6]: 638 ng·h/mL | Cmax [1, 7]: 2200 nM | Cmax [1, 8]: 950 ng/mL | half-life [1, 9]: 1.68 h | AUC(0-inf) [1, 10]: 449 ng·h/mL | bioavailability ([1]; male, mouse, plasma, ICR mice): 14% | Cmax [1, 11]: 640 nM | Cmax [1, 12]: 282 ng/mL | half-life [1, 13]: 1.49 h

Cc1ccccc1CN1C(=O)C2=C(CCN(Cc3ccccc3)C2)N2CCN=C12 [ONC201, reference compound]
reported t 1/2 ([3]; in mice, higher doses): 6.4 h | caspase‐3/7 activity [4]: no increase | PARP cleavage [4]: no increase | TUFM and TFAM protein levels by 24 h [5]: complete or near‐complete loss | time at which TUFM and TFAM protein levels began to decline [5]: ~ 6 h | IC50 (MDA‐MB‐231 cells; media containing galactose, read-out: IC50 (nM) Galactose): 350 nM | IC50 (MDA‐MB‐231 cells; media containing glucose, read-out: IC50 [glucose]): 1700 nM | increase in exposure (AUC) vs 10 mg/kg oral ([1]; 25 mg/kg oral): 46 X | AUC (0–∞) ([1]; ICR mice, 10 mg/kg oral): 3.13 ng·h/mL | Cmax ([1]; male, mouse, in vivo, iv, ICR mice, 2.0 mg/kg i.v., read-out: C max (mg/ml)): 122 ng/mL | Cmax ([1]; male, mouse, in vivo, ICR mice, 10 mg/kg oral, read-out: C max (mg/ml)): 8.99 ng/mL | Cmax ([1]; male, mouse, in vivo, ICR mice, 25 mg/kg oral, blood collection 0.083–4 h, read-out: C max (mg/ml)): 195 ng/mL | AUC(0-inf) [1, 6]: 50.7 ng·h/mL | Cmax [1, 7]: 310 nM | half-life [1, 9]: 0.26 h | bioavailability ([1]; male, mouse, plasma, ICR mice): 1.2% | Cmax [1, 11]: 23 nM | half-life [1, 13]: 0.31 h | AUC(0-inf) ([1]; male, mouse, plasma, ICR mice, 25 mg/kg oral, blood collection 0.083–4 h): 145 ng·h/mL | Cmax ([1]; male, mouse, plasma, ICR mice, 25 mg/kg oral, blood collection 0.083–4 h, read-out: C max): 500 nM | half-life ([1]; male, mouse, plasma, ICR mice, i.v. 2 mg/kg and oral 10 mg/kg arms, read-out: t 1/2 (range over study arms)): 0.26 to 0.31 h

Cn1c2c(c(=O)n(Cc3ccc(Cl)cc3)c1=O)CN(Cc1cccc(C#N)c1)CC2 [TR‐57]
caspase‐3/7 activity [4]: no increase | PARP cleavage [4]: no increase | TUFM and TFAM protein levels by 24 h [5]: complete or near‐complete loss | time at which TUFM and TFAM protein levels began to decline [5]: ~ 6 h | AUC(0-inf) [1, 6]: 886 ng·h/mL | Cmax [1, 7]: 3000 nM | Cmax [1, 8]: 1240 ng/mL | half-life [1, 9]: 1.52 h | AUC ([1]; male, mouse, plasma, po, ICR mice, 10 mg/kg orally, read-out: exposure (AUC)): 2710 ng·h/mL | AUC(0-inf) [1, 10]: 2710 ng·h/mL | bioavailability ([1]; male, mouse, plasma, ICR mice): 61% | Cmax [1, 11]: 4100 nM | Cmax [1, 12]: 1710 ng/mL | half-life [1, 13]: 1.4 h

N#Cc1cccc(CN2CCC3=C(C2)C(=O)N(Cc2ccc(Cl)cc2)C2=NCC(F)(F)CN23)c1 [TR‐106]
IC50 (SUM159 cells): 120 nM | EC50 [2]: 1100 nM | IC50 (MDA‐MB‐231 cells; [14]): 430 nM

Cc1nc2c(c(=O)n1Cc1ccc(Cl)cc1)CN(Cc1cccc(C#N)c1)CC2 [TR‐97]
IC50 (SUM159 cells): 53 nM | EC50 [2]: 340 nM | IC50 (MDA‐MB‐231 cells; [14]): 104 nM

N#Cc1cccc(CC2CCC3=C(C2)C(=O)N(Cc2ccc(Cl)cc2)C2=NCCN23)c1 (stereo not shown) [TR‐122]
IC50 (SUM159 cells): 3500 nM | EC50 [2]: 1100 nM | IC50 (MDA‐MB‐231 cells; [14]): 2600 nM

C#Cc1cccc(CN2CCC3=C(C2)C(=O)N(Cc2ccc(Cl)cc2)C2=NCCN23)c1 [TR‐27]
AUC(0-inf) [1, 6]: 155 ng·h/mL | Cmax [1, 7]: 350 nM | Cmax [1, 8]: 154 ng/mL | half-life [1, 9]: 1.06 h | bioavailability ([1]; male, mouse, plasma, ICR mice): 33% | Cmax [1, 11]: 290 nM | Cmax [1, 12]: 127 ng/mL | half-life [1, 13]: 1.16 h

CC(=O)O[C@H]1C(=O)[C@@]2(C)[C@H]([C@H](OC(=O)c3ccccc3)[C@]3(O)C[C@H](OC(=O)[C@H](O)[C@@H](NC(=O)c4ccccc4)c4ccccc4)C(C)=C1C3(C)C)[C@]1(OC(C)=O)CO[C@@H]1C[C@@H]2O [Paclitaxel, paclitaxel, reference compound]
IC50 (C3(1)‐Tag cells): 14 nM

CN[C@@H]1C[C@H]2O[C@@](C)([C@@H]1OC)n1c3ccccc3c3c4c(c5c6ccccc6n2c5c31)C(=O)NC4 [Staurosporine, staurosporine, reference compound]
caspase‐3/7 activity [4]: strong increase

O=C1C2=C(CCN(Cc3ccccc3)C2)N2CCN=C2N1Cc1ccc(F)cc1F [ONC206, reference compound]
IC50 (SUM159 cells): 180 nM | EC50 [2]: 830 nM | IC50 (MDA‐MB‐231 cells; [14]): 260 nM
